Data on six compounds can be found in patent US8217035B2, “Pyrimidine derivatives used as PI-3-kinase inhibitors” (Novartis AG, priority 2006, dated 2012).

The test system of experiment [1] is pSer473 Akt in A2780 cells. The experiment can be described thus: pSer473 Akt assay to monitor PI3K pathway in A2780 cells (Biological Method 2, MSD). Format: cell-based. The following applies: Homo sapiens; inhibition of Akt phosphorylation, A2780 cells. The gist of the method:
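A2780 ovarian cancer cells in DMEM/10% FBS were treated with compound for 1 h at 37 °C, then lysed. pSer473-Akt and total Akt were measured by MSD electrochemiluminescence immunoassay. The pSer473/total Akt ratio gave % inhibition versus DMSO, from which EC50 was derived.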

Experiment [2] relates to A2780 ovarian cancer cells. The experiment can be described thus: Cellular proliferation in A2780 cells, Cell Titer Glo (Biological Method 4). Format: cell-based. To be noted: Homo sapiens; ovarian cancer cell line A2780. The gist of the method:
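A2780 cells seeded at 1,000/well in DMEM with 10% FBS, at least 2 h before compound, then exposed 72 h at 37 °C, 5% CO2. Viable cells measured by Cell Titer Glo luminescence; EC50 calculated from duplicate conditions.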

Experiment [3] has as its system Akt^Ser473 phosphorylation in A2780 xenograft tumors. The experiment can be described thus: In vivo target modulation (PK/PD) in A2780 ovarian cancer xenograft tumors (Biological Method 3). Also on record: species or system nu/nu mice. The following applies: for inhibition at 60 mg/kg: 60 mg/kg single oral dose; for inhibition at 60 mg/kg / inhibition at 100 mg/kg: A2780 xenograft tumors, read-out: Modulation of Akt^Ser473 phosphorylation (percentage inhibition compared to vehicle); for inhibition at 100 mg/kg: 100 mg/kg single oral dose. An excerpt: (§1) A2780 ovarian cancer cells obtained from George Coukos (Fox Chase Cancer Center, University of Pennsylvania, Philadelphia, Pa.) were maintained in DMEM (Invitrogen, Inc.) supplemented with 10% heat-inactivated fetal bovine serum with 1% glutamine. Cells were propagated as recommended by the Dr. Coukos and colleagues. Female nu/nu mice (8-12 weeks old, 20-25 g, Charles River) were used for all in vivo pharmacology studies. The mice were housed and maintained in accordance with state and federal guidelines for the humane treatment and care of laboratory animals and received food and water ad libitum. Cancer cells were harvested from mid-log phase cultures using trypsin-EDTA (Invitrogen, Inc.). Five million cells were subcutaneously injected into the right flank of each mouse. Compound treatment was initiated when tumor size reached to 300-400 mm^3 for PK/PD studies and 200-300 mm^3 for efficacy studies. All compound treatment was administrated orally. Tumor volumes were determined by using StudyDirector software.
For PK/PD dose-dependent studies, tumor-bearing mice were given a single oral dose of compound at different concentrations (10, 30, 60 and 100 mg/kg or vehicle) and tumors were resected at 10 hr or 24 hr after dosing. Blood samples were taken by cardiac puncture using a syringe primed with heparin sulfate. Resected tumors were snap frozen on dry ice and pulverized using a liquid nitrogen-cooled cryomortar and pestle, and lysed in cold cell extraction buffer (Biosource) containing protease inhibitor tablet (Complete; EDTA-free, Amersham). Supernatants were taken after centrifugation of tumor lysates at 300×g for 10 min at 4° C. and the protein concentration in each supernatant was determined by BCA (BioRad). An equal amount of protein from each tumor lysate was loaded onto 10% Tris-glycine gels (Invitrogen), for sodiumdoceylsulfate-polyacrylamide gel electrophoresis (SDS-PAGE) after which proteins were transferred from the gel onto PVDF membrane. Membranes were probed with antibodies that recognize phosphoAkt^Ser473 or phosphoAkt^Thr308 (Cell Signaling) followed by secondary goat anti-rabbit IgG conjugated to HRP(Amersham). Positive bands were visualized by enhanced chemiluminescence with X-ray film. Similar procedures were used to determine total AKT in the same tumor lysates to serve as normalization for total protein in each determination. The density of the positive band on the X-ray film was scanned and the target modulation for each compound was expressed as percentage inhibition by each compound compared to vehicle treatment.
(§2) For efficacy studies, A2780 cancer cells (5×10^6 in 100 μl of DMEM culture medium) were injected subcutaneously into the right flank of each nu/nu mouse. […] Tumor growth and animal body weight was measured twice weekly with daily clinical observation to monitor potential toxicities related to the treatment. […] Activation of the PI3K signaling pathway results in the phosphorylation of the downstream signaling molecule Akt at Ser^473 and/or Thr^308. Compound modulation of Akt^Ser473 phosphorylation was examined in A2780 xenograft tumors at time points ranging from 30 min to 36 hr after a single compound dose at 60 or 100 mg/kg.

In the next experiment the test system is A2780 tumor xenograft. The experiment can be described thus: Efficacy study in A2780 ovarian cancer xenograft model (Biological Method 3). Format: in vivo, nu/nu mice.
Text: as §1, §2

The target in a further experiment is PI3 kinase alpha (Homo sapiens, UniProt P42336). The experiment can be described thus: PI3K ATP depletion assay (Biological Method 1, Assay 3; KinaseGlo luminescence). The following applies: ATP depletion assay; read-out: PI3 Kinase Alpha, IC50. It counts as biochemical. The essentials: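 Compound in DMSO was mixed with 10 nM PI3 kinase and 5 μg/mL phosphatidylinositol, and the reaction was started with 2 μM ATP. It ran to about 50% ATP depletion and was stopped with KinaseGlo.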
Chain of PI3 kinase alpha (P42336 whole entry): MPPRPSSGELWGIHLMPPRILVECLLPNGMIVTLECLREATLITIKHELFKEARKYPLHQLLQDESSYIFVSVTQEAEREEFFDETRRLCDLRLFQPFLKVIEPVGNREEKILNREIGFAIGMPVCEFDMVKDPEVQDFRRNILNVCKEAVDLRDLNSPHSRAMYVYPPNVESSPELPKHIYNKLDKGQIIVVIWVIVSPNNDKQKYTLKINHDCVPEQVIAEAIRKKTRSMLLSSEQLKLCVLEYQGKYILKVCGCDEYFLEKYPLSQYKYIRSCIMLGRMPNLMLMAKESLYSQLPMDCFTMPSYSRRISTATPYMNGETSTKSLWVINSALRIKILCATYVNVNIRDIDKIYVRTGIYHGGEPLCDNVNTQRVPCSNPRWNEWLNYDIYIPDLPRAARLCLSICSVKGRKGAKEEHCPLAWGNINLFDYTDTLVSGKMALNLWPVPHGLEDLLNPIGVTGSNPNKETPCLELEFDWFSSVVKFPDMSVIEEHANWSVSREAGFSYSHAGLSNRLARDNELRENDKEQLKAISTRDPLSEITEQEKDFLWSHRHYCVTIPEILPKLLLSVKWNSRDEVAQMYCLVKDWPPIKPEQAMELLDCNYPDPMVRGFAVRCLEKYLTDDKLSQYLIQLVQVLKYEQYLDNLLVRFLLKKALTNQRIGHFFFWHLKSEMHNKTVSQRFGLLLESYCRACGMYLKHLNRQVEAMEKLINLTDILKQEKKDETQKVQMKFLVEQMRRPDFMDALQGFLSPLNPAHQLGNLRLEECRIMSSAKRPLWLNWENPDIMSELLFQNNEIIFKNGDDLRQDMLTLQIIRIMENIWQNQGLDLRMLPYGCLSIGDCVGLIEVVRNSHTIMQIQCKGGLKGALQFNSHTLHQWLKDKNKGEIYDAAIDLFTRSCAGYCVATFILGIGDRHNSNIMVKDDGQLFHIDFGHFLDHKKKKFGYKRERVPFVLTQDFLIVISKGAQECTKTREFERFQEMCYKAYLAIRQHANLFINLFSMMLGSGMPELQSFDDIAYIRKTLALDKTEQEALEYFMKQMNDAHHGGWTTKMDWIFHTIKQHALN
Chain of PI3 kinase alpha (P27986 whole entry partner): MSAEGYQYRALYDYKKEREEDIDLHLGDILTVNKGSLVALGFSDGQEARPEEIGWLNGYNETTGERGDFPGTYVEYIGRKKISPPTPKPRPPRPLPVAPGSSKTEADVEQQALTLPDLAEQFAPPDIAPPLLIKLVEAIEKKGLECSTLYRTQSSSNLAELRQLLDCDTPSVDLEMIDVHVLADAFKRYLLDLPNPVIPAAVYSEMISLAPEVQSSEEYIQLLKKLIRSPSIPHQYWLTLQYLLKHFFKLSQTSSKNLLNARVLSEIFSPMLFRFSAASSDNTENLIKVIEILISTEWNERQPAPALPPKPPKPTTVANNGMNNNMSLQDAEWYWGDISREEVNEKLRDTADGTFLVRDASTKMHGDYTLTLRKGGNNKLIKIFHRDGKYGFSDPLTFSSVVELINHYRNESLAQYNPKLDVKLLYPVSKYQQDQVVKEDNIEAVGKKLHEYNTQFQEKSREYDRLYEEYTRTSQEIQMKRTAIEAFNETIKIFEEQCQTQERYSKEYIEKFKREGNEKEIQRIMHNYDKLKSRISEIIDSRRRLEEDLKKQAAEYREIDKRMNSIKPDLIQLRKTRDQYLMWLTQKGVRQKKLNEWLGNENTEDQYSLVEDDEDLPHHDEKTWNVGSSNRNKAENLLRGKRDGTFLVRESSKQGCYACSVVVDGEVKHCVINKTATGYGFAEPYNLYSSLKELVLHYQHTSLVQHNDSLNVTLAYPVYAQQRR
For orientation: Kinase-Glo reads ATP consumption through a luciferase reaction.

Where [4] appears, read: 60 mg/kg oral daily, A2780 model.

Molecules are shown by their SMILES. Read-outs that look alike come from different tables or passages of the source.

On to `Nc1cc(C(F)(F)F)c(-c2cc(N3CCOCC3)nc(N3CCOCC3)n2)cn1` [Compound 10], for which the EC50 in experiment [1] and in experiment [2] was less than 1000 nM throughout. In addition, in experiment [3] (Mus musculus, A2780, 30 mg/kg oral b.i.d., read-out: Target inhibition in A2780 tumors, sustained over the whole dosing period), the inhibition at 30 mg/kg was less than 75%. In experiment [3] (Mus musculus, 10 hr), the inhibition at 60 mg/kg was greater than 75%. Further, the inhibition at 100 mg/kg in experiment [3] (Mus musculus, 10 hr) is greater than 75%. Moreover, the Antitumor activity result in the experiment on A2780 tumor xenograft (30 mg/kg oral b.i.d., A2780 model (FIG. 5)) is “significant antitumor activity”. Moreover, the Tumor growth inhibition with A2780 tumor xenograft (30 mg/kg oral daily, A2780 model) is 40%; with A2780 tumor xenograft (setting [4]) it was 70%; with A2780 tumor xenograft (100 mg/kg oral daily, A2780 model (FIG. 2)), “tumor growth stasis”.

In the case of `Nc1ncc(-c2cc(OC3CCOCC3)nc(N3CCOCC3)n2)c(C(F)(F)F)n1` [Compound 66], the IC50 at PI3 kinase alpha is less than 1000 nM. Further, the EC50 in experiment [1] was less than 1000 nM; in experiment [2], less than 10000 nM. Moreover, the inhibition at 60 mg/kg in experiment [3] (Mus musculus, 10 hr) is less than 50%.

As to `Nc1ncc(-c2cc(OC3CCOCC3)nc(N3CCOCC3)n2)c(N)n1` [Compound 84], the IC50 on PI3 kinase alpha is less than 1000 nM. In addition, the concentration for a half-maximal effect (EC50) in experiment [1] and in experiment [2] was less than 1000 nM in each case. Further, the inhibition at 60 mg/kg in experiment [3] (Mus musculus, 10 hr) lay within 50 to 75%. Further, the Tumor growth inhibition with A2780 tumor xenograft (setting [4]) was less than 50%.

Take `COc1ccc(Nc2cc(-c3cnc(N)nc3)nc(N3CCOCC3)n2)cn1` [Compound 91]: the EC50 in experiment [1] and in experiment [2] was less than 1000 nM each time. Also, the “Duration of target modulation (50% inhibition)” value in experiment [3] (60 mg/kg, A2780 tumors) was determined as 8 h. The inhibition at 100 mg/kg in experiment [3] (Mus musculus, 8 hr) is greater than 50%. Also, the Tumor growth inhibition result in the experiment with A2780 tumor xenograft (10 mg/kg oral twice daily, A2780 tumors (FIG. 1)) is reported as “no inhibitory activity”; in the experiment with A2780 tumor xenograft (60 mg/kg oral twice daily, A2780 tumors (FIG. 1)) it was 50%.

`Cc1c(Nc2cnc3ccccc3c2)nc(N2CCOCC2)nc1-c1cnc(N)nc1` [Compound 103]: the half-inhibitory concentration (IC50) on PI3 kinase alpha was less than 1000 nM. The EC50 in experiment [1] and in experiment [2] was less than 1000 nM each time. Besides, in experiment [3] (Mus musculus, 8 hr), the inhibition at 100 mg/kg was less than 50%.

For `Nc1ccc(-c2cc(Nc3cnc4ccccc4c3)nc(N3CCOCC3)n2)cn1` [Compound 183], the EC50 in experiment [1] and in experiment [2] was less than 1000 nM in each case. Further, the inhibition at 100 mg/kg in experiment [3] (Mus musculus, 8 hr) was in the range of 50 to 75%.

By EC50 is commonly meant the concentration needed to bring the measured effect to its halfway point. Higher therefore signals a need for much substance. By inhibition is commonly meant the relative decrease from the control value, in per cent. One may read the IC50 as the concentration that gives 50% inhibition.
